Measured values: ChEMBL document CHEMBL1201862, “PubChem BioAssay data set” (2004)
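1) Cells in 96-well plates. 2) Compound, 48 h, 5 concentrations. 3) Linear interpolation between surrounding doses. 4) Unreached endpoint = highest concentration. Abbreviation: GI50, concentration required for 50% inhibition of growth.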 Active and inactive are the calls of the source. No stated cut-off is given here; in the data, active = GI50 up to about 1.1 µM and inactive = higher.

Tests used:
Assay in all cases: NCI anticancer screen, dose series, 48 h
[1] = test system: A549
[2] = test system: COLO 205
[3] = test system: HCT-15
[4] = test system: HT-29
[5] = test system: IGROV-1
[6] = test system: K562
[7] = test system: LOX IMVI
[8] = test system: LXFL 529
[9] = test system: M14
[10] = test system: MDA-MB-435
[11] = test system: NCI-H460
[12] = test system: NCI/ADR-RES
[13] = test system: OVCAR-5
[14] = test system: RXF 393
[15] = test system: SF-268
[16] = test system: SF-295
[17] = test system: SK-MEL-2
[18] = test system: SK-MEL-5
[19] = test system: SK-OV-3
[20] = test system: UACC-257

For `CC(C)(C)c1nc2c(o1)C(=O)c1ccccc1C2=O`, the GI50 [1] was 3.53 µM (inactive), the GI50 [2] was 4.81 µM (inactive) and the GI50 [3] was 2.48 µM. The GI50 [4] was 3.9 µM (inactive), the GI50 [5] was 2.46 µM (inactive) and the GI50 [6] was 0.834 µM (active). For the same molecule, the GI50 [7] was 0.394 µM (active), the GI50 [8] was 6.44 µM (inactive) and the GI50 [9] was 0.759 µM (active). For the same molecule, the GI50 [10] was 0.185 µM (active), the GI50 [11] was 3.82 µM (inactive) and the GI50 [12] was 0.447 µM (active). For the same molecule, the GI50 [13] was 2.38 µM (inactive), the GI50 [14] was 2.08 µM (inactive) and the GI50 [15] was 2.47 µM (inactive). The GI50 [16] was 1.93 µM (inactive), the GI50 [17] was 0.592 µM (active) and the GI50 [18] was 0.437 µM (active). For the same molecule, the GI50 [19] was 4.98 µM (inactive) and the GI50 [20] was 0.519 µM (active).

In the case of `COc1cc([C@@H]2c3cc4c(cc3[C@@H](NC(=O)c3cccc([N+](=O)[O-])c3)C3COC(=O)[C@@H]32)OCO4)cc(OC)c1O` (some centres undefined), the GI50 [1] is reported as 0.0442 µM (active), the GI50 [2] is reported as 4.66 µM (inactive) and the GI50 [3] is reported as 1.28 µM. For the same molecule, the GI50 [4] was 1.7 µM (inactive), the GI50 [5] was 3.85 µM (inactive) and the GI50 [6] was 2.2 µM (inactive). The GI50 [7] was 0.295 µM (active), the GI50 [8] was 10.3 µM (inactive) and the GI50 [9] was 0.621 µM (active). The GI50 [11] was < 0.01 µM (active), the GI50 [13] was 2.23 µM (inactive) and the GI50 [14] was 2.34 µM (inactive). For the same molecule, the GI50 [15] was 0.552 µM (active), the GI50 [16] was 0.245 µM (active) and the GI50 [17] was 2.77 µM (inactive). For the same molecule, the GI50 [18] was 0.452 µM (active), the GI50 [19] was 0.329 µM (active) and the GI50 [20] was 6.18 µM (inactive).

In the case of `Cc1cccc(C)c1NC(=O)C(=O)Cc1nc2ccccc2s1`, the GI50 [1] is reported as > 100 µM (inactive), the GI50 [2] is reported as > 100 µM (inactive) and the GI50 [3] is reported as greater than 100 µM. The GI50 [4] was > 100 µM (inactive), the GI50 [5] was > 100 µM (inactive) and the GI50 [6] was > 100 µM (inactive). For the same molecule, the GI50 [7] was > 100 µM (inactive), the GI50 [8] was > 100 µM (inactive) and the GI50 [9] was > 100 µM (inactive). For the same molecule, the GI50 [11] was > 100 µM (inactive), the GI50 [13] was > 100 µM (inactive) and the GI50 [14] was 50.9 µM (inactive). For the same molecule, the GI50 [15] was > 100 µM (inactive), the GI50 [16] was > 100 µM (inactive) and the GI50 [17] was > 100 µM (inactive). The GI50 [18] was > 100 µM (inactive), the GI50 [19] was > 100 µM (inactive) and the GI50 [20] was > 100 µM (inactive).

In the case of `CN1CCCC2[C@@H]3CCC4=C(O)C(=O)CC[C@]4(C)C3CC[C@@]21C` (some centres undefined), the GI50 [1] is reported as > 100 µM (inactive), the GI50 [2] is reported as > 100 µM (inactive) and the GI50 [3] is reported as greater than 100 µM. For the same molecule, the GI50 [4] was > 100 µM (inactive), the GI50 [5] was > 100 µM (inactive) and the GI50 [6] was > 100 µM (inactive). For the same molecule, the GI50 [7] was > 100 µM (inactive), the GI50 [8] was > 100 µM (inactive) and the GI50 [9] was > 100 µM (inactive). The GI50 [11] was > 100 µM (inactive), the GI50 [13] was > 100 µM (inactive) and the GI50 [14] was > 100 µM (inactive). For the same molecule, the GI50 [15] was > 100 µM (inactive), the GI50 [16] was > 100 µM (inactive) and the GI50 [17] was 1.4 µM (inactive). For the same molecule, the GI50 [18] was > 100 µM (inactive), the GI50 [19] was > 100 µM (inactive) and the GI50 [20] was > 100 µM (inactive).
